Laboratory results from publication PMC3578785, “Improved BM212 MmpL3 Inhibitor Analogue Shows Efficacy in Acute Murine Model of Tuberculosis Infection” (PLoS ONE, 2013).

Legend:
[1] = tested on: M. tuberculosis H37Rv and mmpL3 mutants DR1-DR9; assay type: cell-based
[2] = tested on: M. bovis BCG and mmpL3 mutants M1, M8; assay type: cell-based

Cc1ccc(-c2cc(CN3CCOCC3)c(C)n2-c2ccc(F)cc2)cc1 [Compound 5, 2-Methyl-3-[(morpholin-4-yl)-methyl]-5-[4-(methyl)phenyl]-1-[4-(fluoro)phenyl]-1H-pyrrole]
MIC for M. tuberculosis mutants with amino acid change V681I [1]: 5.4 µM

CCc1ccc(-c2cc(CN3CCOCC3)c(C)n2-c2ccc(F)cc2)cc1 [Compound 8, 2-Methyl-3-[(morpholin-4-yl)-methyl]-5-[4-(ethyl)phenyl]-1-[4-(fluoro)phenyl]-1H-pyrrole]
MIC for M. bovis BCG mutants resistant to compound 8 [2]: 0.63 µM
MIC for M. tuberculosis isolates resistant to compound 8 [1]: 0.66 µM
